We go through 13 compounds from patent US4599351A (priority 1984, dated 1986).

Converted amounts (≈) assume the structure as drawn. “And” between values parts separate entries of the source, which are not always exact repeats. Equal entries are not always repeated. Where only a bound is given, the exact number is not on record here.

The test system of assay [1] is Plasmopara viticola. Put plainly: whole plant or invertebrate. Format: in vivo.
Assay [2] deals with Phytophthora infestans. Briefly: whole plant or invertebrate. It counts as in vivo.
Assay [3] has as its system Pythium vexans Sensitive (Naturally Occurring). Put plainly: Fungitoxicity in V-8 juice agar, sensitive Pythium vexans (Example 7). Format: cell-based. Particulars: for IC50: Phytopythium vexans, V-8 juice agar, read-out: ED50, Pythium vexans Sensitive (Naturally Occurring).
The subject of assay [4] is Pythium vexans Resistant. Put plainly: microbe, parasite or virus in culture. Format: cell-based. The settings on record: for ED50 Ratio R/S, Pythium vexans: ED50-resistant to ED50-sensitive; for IC50: Phytopythium vexans, read-out: ED50, Pythium vexans Resistant; for ED50 against resistant fungi (in words): resistant mutant strains of Pythium ultimum or Pythium vexans, agar studies.

Assay [5] relates to Pythium ultimum Sensitive (Naturally Occurring). Put plainly: Fungitoxicity in V-8 juice agar, sensitive Pythium ultimum (Example 7). Format: cell-based. Particulars: for IC50: Globisporangium ultimum, V-8 juice agar, read-out: ED50, Pythium ultimum Sensitive (Naturally Occurring).
Assay [6] relates to Pythium ultimum Resistant. Briefly: microbe, parasite or virus in culture. Format: cell-based. The settings on record: for ED50 Ratio R/S, Pythium ultimum: ED50-resistant to ED50-sensitive; for IC50: Globisporangium ultimum, read-out: ED50, Pythium ultimum Resistant.
Assay [7] has as its system Plasmopara viticola. Put plainly: Eradicant Grape Downy Mildew control (Example 4). It counts as in vivo. As for the experimental part:
Compounds of the invention were tested for the eradicant control of the Grape Downy Mildew organism Plasmopara viticola. Detached leaves of between 70 and 80 mm diameter of 7-week-old Vitis vinifera cultivar Emperor grape seedlings were used as hosts. The leaves were inoculated with the organism and placed in an environment chamber and incubated at 18° C.-22° C. and at about 100% relative humidity for 1 to 2 days. The leaves were then sprayed with a solution of the test compound in acetone, water and a small amount of a nonionic emulsifier. The sprayed leaves were then maintained at 18° C.-22° C. and at about 100% relative humidity. Seven to nine days after inoculation, the amount of disease control was determined. The percent disease control provided by the compound of Example 1 was based on the percent disease reduction relative to nontreated check plants.

The mark [8] stands for this setting: Plasmopara viticola, in Vitis vinifera, read-out: Fungicidal Efficacy, GDM (percent disease control).
The mark [9] stands for this setting: Phytophthora infestans, in Solanum lycopersicum, read-out: Fungicidal Efficacy, TLB (percent disease control).
Setting [10] is: Table II Test 5, 6.4 ppm, infection in check plants 60%.
The mark [11] stands for this setting: Table II Test 5, 16 ppm, infection in check plants 60%.
Where [12] appears, read: Table II Test 5, 40 ppm, infection in check plants 60%.
Setting [13] is: Table II Test 4, 16 ppm, infection in check plants 63%.
Setting [14] is: Table II Test 4, 40 ppm, infection in check plants 63%.
[15] abbreviates: Table II Test 4, 100 ppm, infection in check plants 63%.
[16] abbreviates: Table II Test 4, 250 ppm, infection in check plants 63%.

Take `CCCC(=O)N(c1c(C)cccc1C)C1CCSC1=O` (stereo not shown) [CH2 CH2 CH3, Y = S, Z = O, 3-(N-butyryl-2,6-dimethylanilino)-butyrothiolactone]: the pest or weed control at 250 ppm in assay [1] (setting [8]) is 99%; in assay [2] (setting [9]) it was 35%.
As to `Cc1cccc(C)c1N(C(=O)C(C)(C)C)C1CCOC1=O` (stereo not shown) [C(CH3)3], the pest or weed control at 250 ppm in assay [2] (setting [9]) is 0%.
For `CC(=O)N(c1c(C)cccc1C)C1CCOC1=O` (stereo not shown) [CH3], the results for the pest or weed control at 100 ppm in assay [1] (setting [8]) and in assay [2] (setting [9]) were 42% and 79%, respectively.
On to `COCC(=O)N(c1c(C)cccc1C)C(C)C(=O)OC` (stereo not shown) [CONTROL, N-methoxyacetyl-N-(1-methoxycarbonylethyl)-2,6-dimethylaniline, reference compound], for which the IC50 in assay [3] is 0.075 µg/mL (≈ 0.268 µM); in assay [4], 635 µg/mL (≈ 2270 µM); in assay [5], 0.036 µg/mL (≈ 0.129 µM); in assay [6], 940 µg/mL (≈ 3370 µM). Further, the “ED50 Ratio R/S, Pythium vexans” value in assay [4] is given as 8,467. Besides, the “ED50 Ratio R/S, Pythium ultimum” value in assay [6] is on record as 26,000.
As for `Cc1cccc(C)c1N(C(=O)CCl)C1CCOC1=O` (stereo not shown) [CH2 Cl, reference compound], the IC50 in assay [3] amounted to 0.19 µg/mL (≈ 0.674 µM); in assay [4] it was 145 µg/mL (≈ 515 µM); in assay [5] it was 0.005 µg/mL (≈ 0.0177 µM); in assay [6], 120 µg/mL (≈ 426 µM). For the same compound, the “ED50 Ratio R/S, Pythium vexans” value in assay [4] was 763. Further, the “ED50 Ratio R/S, Pythium ultimum” value in assay [6] is reported as 24,000.
As to `CCCCCC(=O)N(c1c(C)cccc1C)C1CCOC1=O` (stereo not shown) [(CH2)4 CH3], the pest or weed control at 250 ppm in assay [1] (setting [8]) came out at 100%; in assay [2] (setting [9]), 91%. Also, the “base ED50 relative to Grape Downy Mildew producing fungi (natural), versus R^1 is propyl or butyl compounds” value in assay [1] (in vivo) was “four to ten times higher than the R^1 is propyl or butyl compounds”. Further, the IC50 in assay [3] was found to be 0.56 µg/mL (≈ 1.85 µM); in assay [4] it was 16 µg/mL (≈ 52.7 µM). Besides, the “Percent Control of TLB” value in assay [2] (setting [10]) came out at 7%; in assay [2] (setting [11]), 3%; in assay [2] (setting [12]) it was 37%. Besides, the “ED50 Ratio R/S, Pythium vexans” value in assay [4] was 29. Besides, in assay [4] (Table III), the “ED50 R/S ratio (in words)” value was “excellent”. The “effect of acquired Control resistance on fungitoxicity (in words)” value in assay [4] (Table III, resistant mutants of Pythium ultimum and/or Pythium vexans) is on record as “substantially less affected by the acquired Control resistance than any of the compounds in Table III”. In addition, the “ED50 against resistant fungi (in words)” value in assay [4] is “excellent”.
On to `Cc1cccc(C)c1N(C(=O)C(C)C)C1CCOC1=O` (stereo not shown) [CH(CH3)2], for which the pest or weed control at 250 ppm was determined as 0% in assay [1] (setting [8]) and 23% in assay [2] (setting [9]).
`CCC(=O)N(c1c(C)cccc1C)C1CCOC1=O` (stereo not shown) [C2 H5]: the IC50 was above 1 µg/mL in assay [3], 140 µg/mL (≈ 536 µM) in assay [4], 0.26 µg/mL (≈ 0.995 µM) in assay [5] and 210 µg/mL (≈ 804 µM) in assay [6]. In addition, the “ED50 relative to the R^1 is butyl compound, P. vexans (sensitive)” value in assay [3] (comparison in words) is “more than ten times”. In assay [3] (comparison in words), the “ED50 relative to the R^1 is propyl compound, P. vexans (sensitive)” value was “more than two times”. In addition, the pest or weed control at 250 ppm in assay [2] (setting [9]) was determined as 23%. Moreover, the “Percent Control of TLB” value in assay [2] (setting [13]) was found to be 0%; in assay [2] (setting [14]), 0%; in assay [2] (setting [15]) it was 54%; in assay [2] (setting [16]), 80%. In addition, the “ED50 Ratio R/S, Pythium vexans” value in assay [4] is recorded as below 140. The “ED50 R/S ratio (in words)” value in assay [4] (Table III) is reported as “very good”. Further, the “ED50 relative to the R^1 is butyl compound, P. vexans (resistant)” value in assay [4] (comparison in words) is recorded as “more than three times that of the R^1 is butyl compound”. Moreover, the “ED50 relative to the R^1 is propyl compound, P. vexans (resistant)” value in assay [4] (comparison in words) is given as “more than three times that of the R^1 is propyl compound”. Moreover, the “ED50 relative to the R^1 is propyl compound, P. ultimum (sensitive)” value in assay [5] (comparison in words) is recorded as “more than ten times”. Further, the “ED50 Ratio R/S, Pythium ultimum” value in assay [6] worked out at 808. Also, in assay [6] (comparison in words), the “ED50 relative to the R^1 is propyl compound, P. ultimum (resistant)” value is recorded as “more than twice the ED50 for the R^1 is propyl compound”.
In the case of `Cc1cccc(C)c1N(C(=O)CC(C)C)C1CCOC1=O` (stereo not shown) [CH2 CH(CH3)2], the pest or weed control at 250 ppm in assay [1] (setting [8]) was 96%; in assay [2] (setting [9]) it was 0%.
In the case of `CCCC(=S)N(c1c(C)cccc1C)C1CCOC1=O` (stereo not shown) [CH2 CH2 CH3, Y = O, Z = S], the pest or weed control at 250 ppm in assay [1] (setting [8]) amounted to 100%; in assay [2] (setting [9]), 96%.
`CCCC(=O)N(c1c(C)cccc1C)C1CCOC1=O` (stereo not shown) [Example 1, 3-(N-butyryl-N-2,6-dimethylphenylamino)-gamma-butyrolactone]: the pest or weed control at 250 ppm in assay [1] (setting [8]) amounted to 100%; in assay [2] (setting [9]), 99%. Further, the “fungicidal activity toward Grape Downy Mildew (in words)” value in assay [1] (in vivo) is on record as “unexpectedly high fungicidal activity toward Grape Downy Mildew”. Further, the IC50 in assay [3] came to 0.43 µg/mL (≈ 1.56 µM); in assay [4] it was 43 µg/mL (≈ 156 µM); in assay [5], 0.02 µg/mL (≈ 0.0726 µM); in assay [6], 95 µg/mL (≈ 345 µM). Moreover, the “Percent Control of TLB” value amounted to 0% in assay [2] (setting [13]), 48% in assay [2] (setting [14]), 76% in assay [2] (setting [15]) and 94% in assay [2] (setting [16]). Moreover, the “ED50 Ratio R/S, Pythium vexans” value in assay [4] is recorded as 100. For the same compound, the “ED50 against resistant fungi (in words)” value in assay [4] is recorded as “substantially better ED50's against resistant fungi than the compounds where R^1 has less than 3 carbon atoms”. For the same compound, the “percent disease control (eradicant)” value in assay [7] (40 ppm), in assay [7] (100 ppm) and in assay [7] (250 ppm) was 100% throughout. Moreover, in assay [6], the “ED50 Ratio R/S, Pythium ultimum” value was 4,750.
On to `CCCCC(=O)N(c1c(C)cccc1C)C1CCOC1=O` (stereo not shown) [3-(N-valeryl-N-2,6-dimethylphenylamino)-gamma-butyrolactone], for which the pest or weed control at 250 ppm in assay [1] (setting [8]) worked out at 100%; in assay [2] (setting [9]) it was 96%. In addition, the “Percent Control of GDM” value in assay [1] (in vivo) was 100% and 60% and 54%. Further, in assay [1] (in vivo), the “fungicidal activity toward Grape Downy Mildew (in words)” value is “unexpectedly high fungicidal activity toward Grape Downy Mildew”. For the same compound, the values for the IC50 in assay [3] and in assay [4] were 0.1 µg/mL (≈ 0.346 µM) and 40 µg/mL (≈ 138 µM), respectively. Further, the “Percent Control of TLB” value worked out at 8% in assay [2] (setting [10]), 28% in assay [2] (setting [11]) and 42% in assay [2] (setting [12]). Besides, the “ED50 Ratio R/S, Pythium vexans” value in assay [4] stood at 400. Also, the “ED50 against resistant fungi (in words)” value in assay [4] is “substantially better ED50's against resistant fungi than the compounds where R^1 has less than 3 carbon atoms”. The entries for the “percent disease control (eradicant)” value in assay [7] (40 ppm) and in assay [7] (100 ppm) were 92% and 100%, respectively.
On to `COCC(=O)N(c1c(C)cccc1C)C1CCOC1=O` (stereo not shown) [CH2 OCH3, reference compound], for which the IC50 in assay [3] is 0.15 µg/mL (≈ 0.541 µM); in assay [4] it was 400 µg/mL (≈ 1440 µM); in assay [5] it was 0.005 µg/mL (≈ 0.018 µM); in assay [6] it was 800 µg/mL (≈ 2880 µM). The “ED50 Ratio R/S, Pythium ultimum” value in assay [6] is recorded as 160,000.
